Reference: patent US8354447B2, “mGLU receptors antagonists for treating disorders associated with mGLU receptors including addiction and depression” (The Scripps Research Institute, priority 2002, dated 2013)
Values joined by “and” are separate entries in the source; they are usually repeats but may differ in a detail not shown here. Equal values may be shown once. Read-outs that look alike come from different tables or passages of the source.

Legend:
male Wistar rats [1] = tested on: male Wistar rats
Text: (§1) Animals were trained to respond according to a modification of the discrete-trial current-threshold procedure of Kornetsky and Esposito (Fed Proc 38:2473-2476, 1979), which has been described in detail previously (Markou and Koob, 1992 Physiol Behav 51:111-119). Briefly, a trial was initiated by the delivery of a non-contingent electrical stimulus. […] The current intensity delivered was adjusted for each animal and typically ranged from 50 to 200 μA. […] After a variable inter-trial interval (7.5-12.5 sec, average of 10 sec), another trial was initiated with the delivery of a non-contingent electrical stimulus. […] Responding during the inter-trial interval delayed the onset of the next trial by 12.5 sec. Current levels were varied in alternating descending and ascending series. A set of three trials was presented for each current intensity. Current intensities were altered in 5 μA steps. In each testing session, four alternating descending-ascending series were presented. […] The overall threshold of the session was defined as the mean of the thresholds for the four individual series. Each testing session was ˜30 min in duration. The latency between the onset of the non-contingent stimulus and a positive response was recorded as the response latency. The response latency for each test session was defined as the mean response latency of all trials during which a positive response occurred. After establishment of stable ICSS reward thresholds, rats were tested in the ICSS procedure once daily except for the spontaneous nicotine withdrawal experiment when rats were tested at time-points according to the experimental design.
Systemic administration experiments. These experiments investigated whether nicotine withdrawal, as measured by elevations in ICSS thresholds, could be precipitated in nicotine-treated rats by systemic administration of an agonist at mGluII receptors (LY314582), an agonist at GABAB receptors (CGP44532), or antagonists at mGlu5 (MPEP), NMDA (MK-801) or AMPA/Kainate (NBQX) glutamate receptors. For each drug tested, rats were trained in the ICSS paradigm until stable baseline responding was achieved, defined as ≦10% variation in thresholds for 3 consecutive days and requiring approximately 14 days of daily testing. […] One group was then prepared with subcutaneous osmotic mini-pumps delivering vehicle and the second group with mini-pumps delivering 9 mg/kg/day nicotine hydrogen tartrate (3.16 mg/kg/day nicotine free base). There was a minimum seven-day interval after mini-pump implantation, during which ICSS reward thresholds continued to be measured daily, before the effect of any systemically administered drug on reward thresholds was evaluated.

mice = details: 30 mg/kg i.p.; cited from earlier work
male Wistar rats [2] = assay: ICSS thresholds during spontaneous nicotine withdrawal; type: in vivo, rat
Text: as §1
Osmotic mini-pumps were surgically removed from nicotine-treated rats (n=15) (defined as rats having been prepared with mini-pumps delivering 3.16 mg/kg/day nicotine free-base for at least seven days) or corresponding control rats (n=17; rats prepared with vehicle-containing mini-pumps). All rats were then tested in the ICSS procedure at 12, 18, 24, 36, 48 and 72 hr after the removal of osmotic mini-pumps. These time points were chosen based on the time course of threshold elevations previously observed during spontaneous nicotine withdrawal after removal of nicotine-delivering osmotic mini-pumps (Harrison et al., 2001, Neuropsychopharmacology 25:55-71; K.L.). […] Thirty min before being tested at the 18 h time-point, one group of nicotine withdrawing and one group of control rats were injected with LY341495 (1 mg/kg); the remaining rats were injected with vehicle.

male Wistar rats [3] = assay: Somatic signs of the nicotine withdrawal syndrome; type: in vivo, rat; details: six hours after removal of the nicotine-containing minipumps
Procedure: Rats were placed individually in transparent plastic cylindrical containers (30×38 cm) in which they could move freely. Subjects were habituated to the containers for 10 min each day over 3 days before the first test session. During the test sessions the rats were observed blindly by an experienced observer for 10 min and the frequency of the following signs was recorded based on a checklist of nicotine abstinence signs (Hildebrand et al. 1999; Watkins et al. 2000; Malin 2001): body shakes, chews, cheek tremors, escape attempts, eye blinks, foot licks, gasps, genital licks, head shakes, ptosis, scratches, teeth chattering, writhes and yawns. Multiple successive counts of any sign required a distinct pause between episodes. Ptosis, if present continuously, was only counted once per minute. For statistical analyses, the total number of somatic signs was defined as the sum of individual occurrences of the above mentioned withdrawal signs. Further, the categories of “abdominal constrictions” included gasps and writhes; “facial fasciculation” included cheek tremors, chews, and teeth chattering; and “miscellaneous other signs” included shakes, escape attempts, licks, scratches, and yawns.
Separate drug-naive rats were prepared with osmotic minipumps containing nicotine (3.16 mg/kg per day for 7 days) dissolved in saline. […] Further, this nicotine dose was selected to allow direct comparison of the effects of bupropion on somatic signs (present experiment 4) and on reward threshold elevations (experiment 3 described above) observed during nicotine withdrawal. To induce the somatic signs of nicotine withdrawal the minipumps were removed 6 days and 18 h after implantation. The behavioral observations were conducted 6, 12 and 24 h after the removal of the minipumps. The rats were injected with bupropion (0, 5, 10, 20, 40 mg/kg, IP; n=6-8), 30 min prior to the 12-h time point. The selection of the time points was based on the time-course of the expression of the somatic signs after the termination of nicotine exposure (Epping-Jordan et al. 1998; Harrison et al. 2001a; Semenova and Markou 2003; Skjei and Markou 2003).

[4] = MPEP 0.01 mg/kg i.p., Nicotine-treated rats
[5] = MPEP 0.01 mg/kg i.p., Vehicle-treated rats
[6] = MPEP 0.05 mg/kg i.p., Nicotine-treated rats
[7] = MPEP 0.05 mg/kg i.p., Vehicle-treated rats
[8] = MPEP 0.1 mg/kg i.p., Nicotine-treated rats
[9] = MPEP 0.1 mg/kg i.p., Vehicle-treated rats
[10] = MPEP 0.5 mg/kg i.p., Nicotine-treated rats
[11] = MPEP 0.5 mg/kg i.p., Vehicle-treated rats
[12] = MPEP 1 mg/kg i.p., Nicotine-treated rats
[13] = MPEP 1 mg/kg i.p., Vehicle-treated rats
[14] = MPEP 2 mg/kg i.p., Nicotine-treated rats
[15] = MPEP 2 mg/kg i.p., Vehicle-treated rats
[16] = MPEP 3 mg/kg i.p., Nicotine-treated rats
[17] = MPEP 3 mg/kg i.p., Vehicle-treated rats

Cc1cccc(C#Cc2ccccc2)n1 [MPEP, 2-methyl-6-(phenylethynyl)-pyridine]
ICSS Thresholds (male Wistar rats [1]; [4]): 93.86 ± 6.0 percentage of baseline
ICSS response Latencies (male Wistar rats [1]; [4]): 101.50 percentage of baseline
ICSS Thresholds (male Wistar rats [1]; [5]): 98.75 ± 3.5 percentage of baseline
ICSS response Latencies (male Wistar rats [1]; [5]): 99.75 ± 3.4 percentage of baseline
ICSS Thresholds (male Wistar rats [1]; [6]): 94.11 ± 2.6 percentage of baseline
ICSS response Latencies (male Wistar rats [1]; [6]): 103.48 percentage of baseline
ICSS Thresholds (male Wistar rats [1]; [7]): 101.27 ± 4.1 percentage of baseline
ICSS response Latencies (male Wistar rats [1]; [7]): 104.87 ± 3.3 percentage of baseline
ICSS Thresholds (male Wistar rats [1]; [8]): 103.84 ± 1.2 percentage of baseline
ICSS response Latencies (male Wistar rats [1]; [8]): 102.54 percentage of baseline
ICSS Thresholds (male Wistar rats [1]; [9]): 105.13 ± 3.2 percentage of baseline
ICSS response Latencies (male Wistar rats [1]; [9]): 105.13 ± 4.8 percentage of baseline
ICSS Thresholds (male Wistar rats [1]; [10]): 104.02 ± 2.2 percentage of baseline
ICSS response Latencies (male Wistar rats [1]; [10]): 99.47 percentage of baseline
ICSS Thresholds (male Wistar rats [1]; [11]): 103.01 ± 2.7 percentage of baseline
ICSS response Latencies (male Wistar rats [1]; [11]): 103.20 ± 4.4 percentage of baseline
ICSS Thresholds (male Wistar rats [1]; [12]): 105.81 ± 3.3 percentage of baseline
ICSS response Latencies (male Wistar rats [1]; [12]): 99.12 percentage of baseline
ICSS Thresholds (male Wistar rats [1]; [13]): 103.70 ± 3.0 percentage of baseline
ICSS response Latencies (male Wistar rats [1]; [13]): 100.72 ± 2.1 percentage of baseline
ICSS Thresholds (male Wistar rats [1]; [14]): 121.17 ± 6.2 percentage of baseline
ICSS response Latencies (male Wistar rats [1]; [14]): 101.31 percentage of baseline
ICSS Thresholds (male Wistar rats [1]; [15]): 111.21 ± 2.3 percentage of baseline
ICSS response Latencies (male Wistar rats [1]; [15]): 107.60 ± 2.6 percentage of baseline
ICSS Thresholds (male Wistar rats [1]; [16]): 119.11 ± 5.5 percentage of baseline
ICSS response Latencies (male Wistar rats [1]; [16]): 102.22 percentage of baseline
ICSS Thresholds (male Wistar rats [1]; [17]): 111.52 ± 4.8 percentage of baseline
ICSS response Latencies (male Wistar rats [1]; [17]): 103.58 ± 2.3 percentage of baseline
ICSS reward thresholds (male Wistar rats [1]; MPEP 0.01-0.1 mg/kg, nicotine-treated or control rats): did not affect reward thresholds
ICSS reward thresholds (male Wistar rats [1]; MPEP 0.5-3 mg/kg): elevated reward thresholds in nicotine-treated and control rats
ICSS response Latencies (male Wistar rats [1]; MPEP 0.5-3 mg/kg, either group): had no effect on response latencies
rotarod performance (mice): had no effect on rotarod performance

CN1CCCC1c1cccnc1 (single isomer, unassigned; (-)) [nicotine, (−)-1-methyl-2-(3-pyridyl) pyrrolidine]
ICSS reward threshold elevation (male Wistar rats [2]; 12 h after removal of mini-pumps delivering 3.16 mg/kg/day nicotine free-base, two groups before treatment (n=8, n=7)): 117.67±3.1% and 119.93±3.5%
ICSS Thresholds (male Wistar rats [2]; withdrawal from chronic nicotine treatment): produced robust ICSS threshold elevations compared to control rats
total somatic signs of abstinence (male Wistar rats [3]): significant increase in the amount of total somatic signs of abstinence
